Legend:
human APJ receptor = human APJ receptor (Homo sapiens (Human), UniProt P35414); assay: biochemical; format: biochemical; settings: read-out: Activity hAPJ SPA EC50 IP
In short: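 Agonist-stimulated [35S]GTPγS (0.2 nM) binding was read by SPA after 90 min at room temperature. Buffer: 20 mM HEPES pH 7.5 with 5 mM MgCl2, 200 mM NaCl, 3 μM GDP, 0.1% BSA; membranes were from a stable human APJ CHO line. EC50 values are averages of independent runs, fitted by non-linear regression.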

[1] = system: isolated perfused rat hearts; assay: Load independent inotropic effects, ex vivo assay (isolated perfused rat hearts, Langendorff); settings: percent change over vehicle
Excerpt: Evidence for Load Independent Inotropic Effects with APJ Agonists using Ex Vivo Assay (Isolated Perfused Rat Hearts)
Naive Sprague Dawley® SD rats (Harlan laboratories (Livermore, Calif. USA)) were anesthetized and hearts were excised followed by cannulation in the Langendorff apparatus (Harvard apparatus, Holliston, Mass. USA) via aorta. […] The pressure of the solution causes the aortic valve to shut and the perfusate is then forced into the ostium and the coronary vessels. This allows the heart to beat for several h. A balloon was inserted into the left ventricle (LV) to measure dP/dtmax (derivative of left ventricular pressure) as an index of cardiac contractility. The APJ agonist was perfused constantly in a dose dependent manner into the heart to examine cardiac contractility.

heart failure rat model = assay: Cardiac contractility in vivo in heart failure rat model (MI rat model); settings: for MI Rat Model dP/dtmax (%): in vivo, heart failure (MI) rat model, acute administration for 30 min; for cardiac contractility as measured by dP/dtmax (derivative of left ventricular pressure): male Lewis rats, heart failure by ligation of left descending coronary artery, ejection fraction <35%, dosed acutely for 30 min
Description: Male Lewis rats (Charles River, USA) at 2-3 months of age were used for the study. […] APJ agonists were administered dose dependently acutely for a period of 30 min.

heart failure rats = assay: Cardiac function with APJ small molecule agonists in the presence of ACE inhibitor captopril in heart failure rats in vivo; set-up: species or system rat; settings: captopril alone, acute settings
Excerpt: The interaction between […] (ACE2) and Apelin biology is complicated. To investigate the interaction between the Apelin-APJ and ACE signalling pathways, we examined the improvement in cardiac function with APJ small molecule agonists in the presence of ACE inhibitor captopril in heart failure rats in vivo.

[2] = system: isolated perfused rat hearts; assay: Langendorff isolated perfused rat heart (left ventricular dP/dt); settings: ex vivo naive Sprague Dawley rat hearts, Langendorff apparatus, as a function of concentration
APJ/AT1R = APJ/AT1R (Homo sapiens (Human), UniProt P30556+P35414); assay: IP1 assay (TR-FRET) for allosteric interaction between APJ and AT1R in CHO-K1 APJ/AT1R cells; format: cell-based; settings: addition of losartan
Chain of APJ/AT1R (P35414 whole entry, looked up): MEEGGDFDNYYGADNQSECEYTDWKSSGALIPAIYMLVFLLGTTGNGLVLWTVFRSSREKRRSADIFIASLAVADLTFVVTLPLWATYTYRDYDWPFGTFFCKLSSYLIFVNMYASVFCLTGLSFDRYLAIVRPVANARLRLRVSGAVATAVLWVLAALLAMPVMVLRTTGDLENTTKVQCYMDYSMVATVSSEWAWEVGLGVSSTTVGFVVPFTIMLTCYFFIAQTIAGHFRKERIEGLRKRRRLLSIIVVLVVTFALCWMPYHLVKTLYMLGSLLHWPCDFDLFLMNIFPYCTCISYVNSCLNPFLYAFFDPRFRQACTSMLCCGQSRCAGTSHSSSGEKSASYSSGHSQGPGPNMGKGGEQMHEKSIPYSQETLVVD
Chain of APJ/AT1R (P30556 whole entry, looked up): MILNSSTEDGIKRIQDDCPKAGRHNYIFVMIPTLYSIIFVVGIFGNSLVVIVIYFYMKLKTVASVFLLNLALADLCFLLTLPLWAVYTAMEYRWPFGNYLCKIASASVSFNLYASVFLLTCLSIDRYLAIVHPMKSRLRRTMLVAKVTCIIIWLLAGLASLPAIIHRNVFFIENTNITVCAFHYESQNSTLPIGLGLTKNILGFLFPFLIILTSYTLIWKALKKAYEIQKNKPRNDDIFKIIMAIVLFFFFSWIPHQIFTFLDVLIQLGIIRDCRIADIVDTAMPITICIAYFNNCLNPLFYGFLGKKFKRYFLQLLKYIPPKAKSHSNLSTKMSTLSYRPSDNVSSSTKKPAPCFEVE
Description: Single and double stable recombinant cell lines were generated for human APJ and the AT1R receptor in CHO K1 cells tagged either with FLAG or hemagglutinin (HA) tag. Briefly, the CHO-K1 APJ/AT1R cells were seeded in culture medium of DMEM-F12 and 10% FBS at a density of 15 k/well in a 96 well plate overnight. The next day, the culture medium was replaced with medium containing no serum for 4 hours. The compound AngII at a range of concentrations (1 pM-10 μM) with or without different concentrations of APJ agonists were diluted in stimulation buffer and added to the cell plate. The plate was sealed and incubated for 1 hour. This was followed by addition of IP-d2 conjugate followed by europium cryptate antibody conjugate into the wells. The plate was sealed, followed with incubation for 2 hours at room temperature. Time-resolved fluorescence resonance energy (TR-FRET) at 620 nm and 665 nm was measured after 2 hours with an Envision reader. The signal ratios and delta F were calculated and the amount of IP1 produced was inversely proportional to the TR-FRET ratio, 665/620 nm.

Chain of human APJ receptor (P35414 whole entry): as the sequence (P35414 whole entry, looked up) above

Molecule | EC50 (human APJ receptor) [nM] | Isolated Heart Assay dP/dtmax (%) [1] [%] | Isolated Heart Assay dP/dtmin (%) [1] [%] | left ventricular dP/dtmax (load independent cardiac contractility) [2] | left ventricular dP/dtmin (load independent cardiac relaxation) [2] | cardiac contractility as measured by dP/dtmax (derivative of left ventricular pressure) (heart failure rat model) | also measured
COc1cccc(OC)c1-n1c(NS(=O)(=O)[C@H](C)[C@@H](OC)c2ccc(Cl)cn2)nnc1-c1cccnc1 (single isomer, unassigned) [Example 531.0, (1S,2R)-1-(5-chloro-2-pyridinyl)-N-(4-(2,6-dimethoxyphenyl)-5-(3-pyridinyl)-4H-1,2,4-triazol-3-yl)-1-methoxy-2-propanesulfonamide or (1R,2S)-1-(5-chloro-2-pyridinyl)-N-(4-(2,6-dimethoxyphenyl)-5-(3-pyridinyl)-4H-1,2,4-triazol-3-yl)-1-methoxy-2-propanesulfonamide] | 0.2 | 4.1 | 1.9 | – | – | – | –
COc1cccc(OC)c1-n1c(NS(=O)(=O)[C@H](C)[C@@H](OC)c2ncc(Cl)cn2)nnc1-c1cncc(C)c1 (single isomer, unassigned) [Example 557.0] | 0.31 | 17.0 | 20.0 | – | – | – | MI Rat Model dP/dtmax (%) (heart failure rat model): No effect
C[C@H](CS)C(=O)N1CCC[C@H]1C(=O)O [Captopril, captopril] | – | – | – | – | – | – | contractility (heart failure rats): does not show a marked improvement; ejection fraction (heart failure rats): does not show a marked improvement
COc1cccc(OC)c1-n1c(NS(=O)(=O)[C@@H](C)[C@H](O)c2ncc(C)cn2)nnc1-c1cccc(C)n1 [Example 99.0, (1R,2S)-N-(4-(2,6-dimethoxyphenyl)-5-(6-methylpyridin-2-yl)-4H-1,2,4-triazol-3-yl)-1-hydroxy-1-(5-methylpyrimidin-2-yl)propane-2-sulfonamide] | 2.3 | – | – | increases load independent cardiac contractility | increases load independent cardiac relaxation | increase in cardiac contractility | –
CCO[C@H](c1ncc(C)cn1)[C@H](C)S(=O)(=O)Nc1nnc(-c2cccnc2)n1-c1c(OC)cccc1OC [Example 109.0, (1R,2S)-N-(4-(2,6-dimethoxyphenyl)-5-(pyridin-3-yl)-4H-1,2,4-triazol-3-yl)-1-ethoxy-1-(5-methylpyrimidin-2-yl)propane-2-sulfonamide] | 0.85 | 15 | 25 | increases load independent cardiac contractility | increases load independent cardiac relaxation | increase in cardiac contractility | MI Rat Model dP/dtmax (%) (heart failure rat model): 20%
COc1cccc(OC)c1-n1c(NS(=O)(=O)[C@@H](C)[C@H](C)c2ncc(C)cn2)nnc1-c1cncc(C)c1 [Example 263.0, (2S,3R)—N-(4-(2,6-dimethoxyphenyl)-5-(5-methylpyridin-3-yl)-4H-1,2,4-triazol-3-yl)-3-(5-methylpyrimidin-2-yl)butane-2-sulfonamide] | – | – | – | increases load independent cardiac contractility | increases load independent cardiac relaxation | increase in cardiac contractility | –
COc1cccc(OC)c1-n1c(NS(=O)(=O)[C@@H](C)[C@H](O)c2ncc(C)cn2)nnc1-c1cncc(C)c1 [Example 371.0, (1R,2S)—N-(4-(2,6-dimethoxyphenyl)-5-(5-methylpyridin-3-yl)-4H-1,2,4-triazol-3-yl)-1-hydroxy-1-(5-methylpyrimidin-2-yl)propane-2-sulfonamide] | – | – | – | increases load independent cardiac contractility | increases load independent cardiac relaxation | – | –
COc1cccc(OC)c1-n1c(NS(=O)(=O)[C@@H](C)[C@H](C)c2ncc(C)cn2)nnc1-c1cccnc1 [Example 586.0, (2S,3R)—N-(4-(2,6-dimethoxyphenyl)-5-(3-pyridinyl)-4H-1,2,4-triazol-3-yl)-3-(5-methyl-2-pyrimidinyl)-2-butanesulfonamide] | 0.3 | – | – | increases load independent cardiac contractility | increases load independent cardiac relaxation | increase in cardiac contractility | –
Cc1cnc([C@@H](C)[C@H](C)S(=O)(=O)Nc2nnc(-c3cncc(C)c3)n2-c2c(F)cccc2F)nc1 [Example 826.0, (2S,3R)-N-(4-(2,6-difluorophenyl)-5-(5-methyl-3-pyridinyl)-4H-1,2,4-triazol-3-yl)-3-(5-methyl-2-pyrimidinyl)-2-butanesulfonamide, (2R,3S)-N-(4-(2,6-difluorophenyl)-5-(5-methyl-3-pyridinyl)-4H-1,2,4-triazol-3-yl)-3-(5-methyl-2-pyrimidinyl)-2-butanesulfonamide] | – | 6.02 | 5.16 | – | – | – | –
COc1cccc(-c2nnc(NS(=O)(=O)[C@@H](C)[C@H](C)c3cnc(C)cn3)n2C2CCOCC2)n1 [Example 843.0, (2S,3R)-N-(5-(6-methoxy-2-pyridinyl)-4-(tetrahydro-2H-pyran-4-yl)-4H-1,2,4-triazol-3-yl)-3-(5-methyl-2-pyrazinyl)-2-butanesulfonamide] | 970 | – | – | – | – | – | –
COc1cnc([C@@H](C)[C@H](C)S(=O)(=O)Nc2nnc(-c3cccc(OC)n3)n2C2CCOCC2)cn1 [Example 844.0, (2S,3R)-3-(5-methoxy-2-pyrazinyl)-N-(5-(6-methoxy-2-pyridinyl)-4-(tetrahydro-2H-pyran-4-yl)-4H-1,2,4-triazol-3-yl)-2-butanesulfonamide] | 86 | – | – | – | – | – | –
CCCCc1nc(Cl)c(CO)n1Cc1ccc(-c2ccccc2-c2nn[nH]n2)cc1 [losartan] | – | – | – | – | – | – | positive cooperativity induced by APJ small molecule agonists in the presence of AngII (APJ/AT1R): relieved this cooperativity
(2S)-N-(4-(2,6-dimethoxyphenyl)-5-(5-methoxy-2-pyridinyl)-4H-1,2,4-triazol-3-yl)-1-(5-fluoro-2-pyrimidinyl)-2-propanesulfonamide and (2R)-N-(4-(2,6-dimethoxyphenyl)-5-(5-methoxy-2-pyridinyl)-4H-1,2,4-triazol-3-yl)-1-(5-fluoro-2-pyrimidinyl)-2-propanesulfonamide [Example 153.0] | 160 | – | – | – | – | – | –

From patent US10058550B2, “Methods of treating heart failure” (priority 2015, dated 2018)
